Here are results for two molecules from article PMC7608335 (Acta Pharmacologica Sinica, 2020).

Experiment [1] concerns the target T1, CaV1.2 channel (α1C subunit) (Rattus norvegicus, UniProt P22002). In words: whole-cell patch clamp. The class given is cell-based. The settings on record: read-out: % of control at 100 nM.
Experiment [2] addresses T1, CaV1.2 channel (α1C subunit). Put plainly: whole-cell patch clamp of ICa1.[…]. The following applies: read-out: % inhibition at 100 μM. In kind it is cell-based.

As for `COC(=O)C1=C(C)NC(C)=C([N+](=O)[O-])[C@H]1c1ccccc1C(F)(F)F` [Bay K 8644, (S)-(-)-methyl-1,4-dihydro-2,6-dimethyl-3-nitro-4-(2-trifluoromethylphenyl)pyridine-5-carboxylate], the remaining activity at 0.1 µM in experiment [1] worked out at 524%. As a reminder, the inhibition is the drop in the measured response relative to a control, in per cent. For `O=C(c1ccc(F)cc1)C1CCN(CCn2c(=O)[nH]c3ccccc3c2=O)CC1` [ketanserin, 3-[2-[4-(4-fluorobenzoyl)piperidin-1-yl]ethyl]-1H-quinazoline-2,4-dione], the inhibition at 100 µM in experiment [2] was approximately 50%.
